What was measured:
Type in all cases: cell-based
Murine ES cells [1] = assay: Mesoderm and cardiac gene expression in EBs by quantitative real-time PCR; conditions: qPCR; for Bry (Brachyury) expression: early treatment after EB3, compared to control; for expression of early cardiac gene Nkx2.5 / expression of early cardiac gene Tbx5: exposure from EB4-6 (early treatment); for expression of early and late cardiac markers (cardiac gene expression): late treatment EB 7-9
Method: (§1) ES cell culture and gene expression analysis. Murine ES cells were propagated undifferentiated in maintenance medium consisting of Glasgow MEM (Sigma G5154) supplemented with 10% fetal bovine serum (FBS, Hyclone SH30071.03), 1 mM β-mercaptoethanol (Sigma M7522), 2 mM L-glutamine (Gibco-BRL 25030-081), 1 mM sodium pyruvate (Gibco-BRL 11360-070), 0.1 mM minimum essential medium containing nonessential amino acids, and LIF-conditioned medium (1:1000). EBs were formed by culturing ES cells (6×10^5/well) for 3 days in ultra-low-attachment six-well plates (Costar 07200601) in differentiation medium (DM), which contained the same components as maintenance medium but had 20% FBS and no LIF. For early treatment, the medium was replaced with DM containing Wnt3a (150 ng/ml, R&D systems) or Dkk1 (500 ng/ml, R&D systems) at the start of day 4; on day 6, the medium was replaced with fresh DM. For late treatment, DM was replaced with Wnt3a- or Dkk1-containing DM at the start of day 7 and switched to fresh DM on day 9. Respective media were changed for early-, late-, and un-treated EBs every 3 days. EBs were monitored for beating from days 8-12. EBs were collected between days 3 and 12 at regular intervals. For gene expression analysis, total RNA was isolated, and real-time PCR was performed with the ABI Prism system (7900HT, Applied Biosystems). All samples were run in triplicate. Real-time PCR data were normalized and standardized with SDS2.2 software.
(§2) FIGS. 4A-E. Canonical Wnt signaling regulates cardiac induction and differentiation in ES cells. a, Brachyury expression profiles, determined by quantitative real-time PCR (qPCR), of undifferentiated ES cells on day 0 and EBs harvested on days 3, 6, and 9 after early Wnt3a or Dkk-1 treatment compared to control. b, Beating EBs grown in suspension were counted from days 8-12. Percentage of beating EBs after early (days 4-6) or late (days 7-9) treatment with Wnt3a (left) or Dkk-1 (right). Asterisks indicate significant difference in beating percentage of treatment groups versus untreated EBs (P<0.01). c, d Immunohistochemistry of day 12 EBs with anti-Islet1 (c) or anti-Tropomyosin (d). e, Cardiac gene expression after early (days 4-6, top) or late (days 7-9, bottom) treatment with Wnt3a or Dkk-1. EBs were harvested on days 3, 6 and 9 (early treatment) or days 6, 9, and 12 (late treatment). Fold change in expression of all indicated genes (y-axis) in EBs with respect to undifferentiated ES cells was assessed by qPCR. NS, not significant. *P<0.01.

Murine ES cells [2] = assay: Beating embryoid bodies (EBs) from ES cells grown in suspension; conditions: for number of beating EBs at EB12: early treatment EB4-6, Wnt3a 150 ng/ml or Dkk1 500 ng/ml, untreated 10%; for EBs beating by EB 12: late treatment EB 7-9, Wnt3a 150 ng/ml or Dkk1 500 ng/ml, control EBs 13%
Method: as §1, §2

Murine ES cells [3] = assay: Immunohistochemistry of day 12 EBs with anti-Islet1 or anti-Tropomyosin; conditions: for number of Isl1-positive cells in EBs: anti-Islet1 immunohistochemistry; for number of Tropomyosin-positive cells in EBs: anti-Tropomyosin immunohistochemistry
Method: Immunohistochemistry and in situ hybridization. Whole or cryosectioned embryos and EBs were stained with the following antibodies: mouse anti-Islet1 (1:200) and anti-tropomyosin (1:100) (DSHB), goat anti-Wnt8a (15 μg/ml, R&D Systems), goat anti-β-catenin (1:50) and rat anti-cyclin D2 (1:100) (Santa Cruz Biotechnology), rabbit anti-phospho-Histone H3 (1:100, Upstate), and horseradish peroxidase-conjugated (with TSA plus Fluorescent Systems, PerkinElmer) secondary antibodies (The Jackson Laboratory). mRNA in situ hybridization was performed with designated antisense probes as described. Srivastava et al Science 270, 1995-9 (1995).
as §1
FIGS. 4A-E. Canonical Wnt signaling regulates cardiac induction and differentiation in ES cells. a, Brachyury expression profiles, determined by quantitative real-time PCR (qPCR), of undifferentiated ES cells on day 0 and EBs harvested on days 3, 6, and 9 after early Wnt3a or Dkk-1 treatment compared to control. b, Beating EBs grown in suspension were counted from days 8-12. Percentage of beating EBs after early (days 4-6) or late (days 7-9) treatment with Wnt3a (left) or Dkk-1 (right). […] Fold change in expression of all indicated genes (y-axis) in EBs with respect to undifferentiated ES cells was assessed by qPCR. […]

[4] = system: human embryonic stem (ES) cells (H9); assay: Beating of differentiating human ES cells treated with Wnt-3a
Method: Differentiating human embryonic stem (ES) cells (H9) were treated with Wnt-3a. […] Thus, canonical Wnt promotes human ES cells to differentiate into cardiomyocytes.

Substance | Bry (Brachyury) expression (Murine ES cells [1]) | expression of early cardiac gene Nkx2.5 (Murine ES cells [1]) | expression of early cardiac gene Tbx5 (Murine ES cells [1]) | expression of early and late cardiac markers (cardiac gene expression) (Murine ES cells [1]) | number of beating EBs at EB12 (Murine ES cells [2]) | EBs beating by EB 12 (Murine ES cells [2]) | number of Isl1-positive cells in EBs (Murine ES cells [3]) | number of Tropomyosin-positive cells in EBs (Murine ES cells [3]) | number of beating hES cells [4]
Dkk1 | unaltered | downregulated | downregulated | not changed | complete absence of beating EBs | Approximately 10% | decreased | decreased | –
Wnt3a | unaltered | upregulated | upregulated | upregulated | over 50% | ~50% | increased | increased | significantly increased

Reference: patent US20100129915A1, “METHODS FOR INDUCING CARDIOMYOGENESIS” (priority 2006, published 2010)
